Assay results as given in PMC5899197 (Journal of Virology, 2018).

Target: T1, BNeV VLPs (rMA415; VP1-major capsid and VP2-minor capsid) (Newbury agent 1, UniProt Q288N7)
T1 construct: gene ORF1
Type: binding

T1 sequence (Q288N7 whole entry, looked up): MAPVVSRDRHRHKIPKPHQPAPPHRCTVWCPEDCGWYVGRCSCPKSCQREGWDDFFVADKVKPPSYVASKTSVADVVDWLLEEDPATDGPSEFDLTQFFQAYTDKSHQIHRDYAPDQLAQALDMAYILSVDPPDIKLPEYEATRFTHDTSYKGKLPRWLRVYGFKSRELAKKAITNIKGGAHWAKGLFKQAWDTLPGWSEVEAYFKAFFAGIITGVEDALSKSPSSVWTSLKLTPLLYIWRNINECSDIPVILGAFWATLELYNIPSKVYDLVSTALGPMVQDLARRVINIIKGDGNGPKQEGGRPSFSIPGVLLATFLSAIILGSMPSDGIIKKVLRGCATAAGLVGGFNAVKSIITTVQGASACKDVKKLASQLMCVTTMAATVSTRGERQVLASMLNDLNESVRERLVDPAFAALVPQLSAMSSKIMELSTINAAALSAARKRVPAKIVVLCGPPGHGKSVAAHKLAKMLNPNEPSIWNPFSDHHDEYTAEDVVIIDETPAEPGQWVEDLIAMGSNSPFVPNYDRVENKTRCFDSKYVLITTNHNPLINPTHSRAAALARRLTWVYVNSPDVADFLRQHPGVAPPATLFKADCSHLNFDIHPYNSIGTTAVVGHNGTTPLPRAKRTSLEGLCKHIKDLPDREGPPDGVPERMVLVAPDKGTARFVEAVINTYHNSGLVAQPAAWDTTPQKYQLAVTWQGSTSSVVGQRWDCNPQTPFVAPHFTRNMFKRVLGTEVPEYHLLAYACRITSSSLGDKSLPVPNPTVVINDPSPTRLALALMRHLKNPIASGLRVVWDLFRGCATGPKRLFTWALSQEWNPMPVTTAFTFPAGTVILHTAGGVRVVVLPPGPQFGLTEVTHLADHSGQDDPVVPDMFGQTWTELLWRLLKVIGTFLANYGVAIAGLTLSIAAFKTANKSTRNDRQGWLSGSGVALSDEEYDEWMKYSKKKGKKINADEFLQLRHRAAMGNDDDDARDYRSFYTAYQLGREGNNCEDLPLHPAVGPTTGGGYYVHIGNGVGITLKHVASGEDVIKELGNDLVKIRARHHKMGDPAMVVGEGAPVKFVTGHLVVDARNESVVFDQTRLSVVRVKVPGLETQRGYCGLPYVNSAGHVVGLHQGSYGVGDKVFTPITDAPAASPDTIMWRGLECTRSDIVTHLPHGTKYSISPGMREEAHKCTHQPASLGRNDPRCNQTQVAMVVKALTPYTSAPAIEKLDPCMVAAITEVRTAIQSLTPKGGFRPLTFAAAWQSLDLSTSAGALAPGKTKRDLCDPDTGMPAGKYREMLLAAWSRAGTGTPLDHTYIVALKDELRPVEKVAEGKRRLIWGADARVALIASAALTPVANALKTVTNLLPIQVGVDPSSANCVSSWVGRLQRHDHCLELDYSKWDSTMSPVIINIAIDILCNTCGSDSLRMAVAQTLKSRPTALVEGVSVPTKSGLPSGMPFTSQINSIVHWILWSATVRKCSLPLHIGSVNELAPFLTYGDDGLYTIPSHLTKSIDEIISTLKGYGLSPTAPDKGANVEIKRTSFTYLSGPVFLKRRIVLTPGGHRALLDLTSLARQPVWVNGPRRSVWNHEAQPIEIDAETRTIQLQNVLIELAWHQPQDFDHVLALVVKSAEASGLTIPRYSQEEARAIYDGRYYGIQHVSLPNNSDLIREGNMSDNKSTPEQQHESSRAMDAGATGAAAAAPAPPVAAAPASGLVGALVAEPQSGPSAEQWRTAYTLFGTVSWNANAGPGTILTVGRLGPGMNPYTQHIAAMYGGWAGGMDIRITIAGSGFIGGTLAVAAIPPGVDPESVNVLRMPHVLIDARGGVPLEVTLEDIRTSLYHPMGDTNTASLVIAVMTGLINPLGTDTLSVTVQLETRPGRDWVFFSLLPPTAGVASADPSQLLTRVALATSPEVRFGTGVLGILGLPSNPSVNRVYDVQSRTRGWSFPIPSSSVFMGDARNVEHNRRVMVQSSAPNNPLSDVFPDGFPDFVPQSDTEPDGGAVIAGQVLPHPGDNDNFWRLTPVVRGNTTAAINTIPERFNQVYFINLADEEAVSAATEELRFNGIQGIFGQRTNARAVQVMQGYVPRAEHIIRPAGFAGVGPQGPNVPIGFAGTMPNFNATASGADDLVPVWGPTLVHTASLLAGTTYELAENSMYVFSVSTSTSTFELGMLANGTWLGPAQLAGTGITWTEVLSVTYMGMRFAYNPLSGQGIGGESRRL

CC(=O)N[C@H]1[C@H]([C@H](O)[C@H](O)CO)O[C@@](O[C@H]2[C@@H](O)[C@@H](CO)O[C@@H](O[C@H]3[C@H](O[C@@H]4O[C@@H](C)[C@@H](O)[C@@H](O)[C@@H]4O)[C@@H](CO)OC(O)[C@@H]3NC(C)=O)[C@@H]2O)(C(=O)O)C[C@@H]1O (stereo partly shown) [sialyl-Le^a]
plate binding assay (ELISA), HRP-streptavidin, A450: sialyl-Le^a (SLe^a), Le^y, Le^x, αGal, H2, H1, SLe^x, A, and B type immobilized synthetic HBGA

CC(=O)N[C@H]1C(O)O[C@H](CO)[C@@H](O[C@@H]2O[C@H](CO)[C@H](O)[C@H](O)[C@H]2O[C@@H]2O[C@@H](C)[C@@H](O)[C@@H](O)[C@@H]2O)[C@@H]1O[C@@H]1O[C@@H](C)[C@@H](O)[C@@H](O)[C@@H]1O (stereo partly shown) [Le^y]
plate binding assay (ELISA), HRP-streptavidin, A450: sialyl-Le^a (SLe^a), Le^y, Le^x, αGal, H2, H1, SLe^x, A, and B type immobilized synthetic HBGA

CC(=O)N[C@H]1C(O)O[C@H](CO)[C@@H](O[C@@H]2O[C@H](CO)[C@H](O)[C@H](O)[C@H]2O[C@@H]2O[C@@H](C)[C@@H](O)[C@@H](O)[C@@H]2O)[C@@H]1O (stereo partly shown) [H2]
plate binding assay (ELISA), HRP-streptavidin, A450: sialyl-Le^a (SLe^a), Le^y, Le^x, αGal, H2, H1, SLe^x, A, and B type immobilized synthetic HBGA

CC(=O)N[C@H]1C(O)O[C@H](CO)[C@@H](O[C@@H]2O[C@H](CO)[C@H](O)[C@H](O)[C@H]2O)[C@@H]1O[C@@H]1O[C@@H](C)[C@@H](O)[C@@H](O)[C@@H]1O (stereo partly shown) [Le^x]
plate binding assay (ELISA), HRP-streptavidin, A450: sialyl-Le^a (SLe^a), Le^y, Le^x, αGal, H2, H1, SLe^x, A, and B type immobilized synthetic HBGA
